Patent US20040176368A1, “Pesticidal composition” (Sumitomo Chemical Company, Limited, priority 2003, published 2004)

Tested on: German cockroaches (Blattlla germanica)
Test: Spray test on German cockroaches in glass box (Test example 1)
Format: in vivo
Conditions: 4.2 ml sprayed, 10 min exposure, observed 4 days thereafter
Procedure: Two grams (2 g) of each of Indoxacarb MP and Imiprothrin are mixed with 98 g of a mixture of xylene/Sorpol SM200X (surfactant produced by Toho Chemical)=85/15 to give each formulation of Indoxacarb MP and Imiprothrin. The formulations for the following tests are produced by mixing the Indoxacarb MP formulation with the Imiprothrin formulation at the designated ratio. The formulations for the tests are diluted with water to the designated concentration to give the preparations for the test.
Into the glass box, 4.2 ml of the preparation obtained above were sprayed with a spray gun. Ten minutes after spraying, the cockroaches were transferred to a plastic container and were provided with food and water. The mortality of the cockroaches was observed 4 days thereafter.

| SMILES | Mortality (%) (concentration of the preparation 0.5 % by weight) | Mortality (%) (concentration of the preparation 0.4 % by weight) |
| --- | --- | --- |
| COC(=O)N(C(=O)N1COC2(C(=O)OC)Cc3cc(Cl)ccc3C2=N1)c1ccc(OC(F)(F)F)cc1 (racemic) [Indoxacarb MP, methyl (RS)-7-chloro-2,5-dihydro-2-[[(methoxycarbonyl)[4-(trifluoromethoxy)phenyl]amino]carbornyl]indeno[1,2-e][1,3,4]oxadiazine-4a(3H)-carboxylate] | 25% | – |
| C#CCN1CC(=O)N(COC(=O)C2C(C=C(C)C)C2(C)C)C1=O (mixture of isomers) [Imiprothrin, 2,5-dioxo-3-prop-2-ynylimidazolidin-1-ylmethyl (1R)-trans,cis-2,2-dimethyl-3-(2-methylprop-1-enyl)cyclopropanecarboxylate] | – | 0% |
